Experimental data taken from ChEMBL document CHEMBL3804815, “Aloperine and Its Derivatives as a New Class of HIV-1 Entry Inhibitors” (ACS Med Chem Lett, 2016).
pEC50: −log10 of the molar value. The source made the active and inactive calls. No cut-off for these calls is given here.

Key:
[1] = Cytotoxicity against human MT4 cells assessed as reduction in cell viability after 3 days by CellTiter-Glo luminescent assay; format: cell-based
[2] = system: Human immunodeficiency virus 1; test: Antiviral activity against HIV1 NL4-3 infected in human MT4 cells assessed as reduction in viral replication measured on day 3 post infection by Nano-Glo luciferase reporter gene assay; format: functional, organism-based; conditions: Human immunodeficiency virus 1, NL4-3, MT4, 72 h
COS [3] = test: Inhibition of HIV1 NL4-3 Env-induced cell-cell fusion between viral envelope expressing African green monkey COS cells to CXCR4 receptor expressing human TZM-bl cells at 0.01 to 10 uM after overnight incubation by Bright-Glo luciferase assay; format: cell-based; conditions: Human immunodeficiency virus 1
COS [4] = test: Inhibition of HIV1 YU2 gp120-induced cell-cell fusion between viral envelope expressing African green monkey COS cells to CCR5 receptor expressing human TZM-bl cells at 0.01 to 10 uM after overnight incubation by Bright-Glo luciferase assay; format: cell-based; conditions: Human immunodeficiency virus type 1 (isolate YU2)
[5] = Inhibition of HIV1 YU2 gp120-induced cell-cell fusion between viral envelope expressing African green monkey COS cells to CCR5 receptor expressing human TZM-bl cells after overnight incubation by Bright-Glo luciferase assay; format: cell-based, Human immunodeficiency virus type 1 (isolate YU2); conditions: Human immunodeficiency virus 1, COS
COS [6] = test: Inhibition of BMS-806 resistant HIV1 YU2 gp120 T198P mutant-induced cell-cell fusion between viral envelope expressing African green monkey COS cells to CCR5 receptor expressing human TZM-bl cells at 5 uM after overnight incubation by Bright-Glo luciferase assay; format: cell-based; conditions: Human immunodeficiency virus type 1 (isolate YU2)
COS [7] = test: Inhibition of HIV1 8X gp120-induced cell-cell fusion between viral envelope expressing African green monkey COS cells and human TZM-bl cells up to 5 uM after overnight incubation by Bright-Glo luciferase assay; format: cell-based; conditions: Human immunodeficiency virus 1
[8] = system: Human immunodeficiency virus 1; test: Antiviral activity against HIV1 NL4-3 assessed as inhibition of early phase viral infection in human MT4 cells; format: functional, organism-based
[9] = system: Human immunodeficiency virus 1; test: Antiviral activity against HIV1 NL4-3 assessed as inhibition of viral infection in human MT4 cells treated 2 hrs post infection; format: functional, organism-based
[10] = Inhibition of HIV1 NL4-3 Env-induced cell-cell fusion between viral envelope expressing African green monkey COS cells to CXCR4 receptor expressing human TZM-bl cells after overnight incubation by Bright-Glo luciferase assay; format: cell-based; conditions: Human immunodeficiency virus 1, NL4-3, COS
COS [11] = test: Inhibition of BMS-806 resistant HIV1 YU2 gp120 T198P mutant-induced cell-cell fusion between viral envelope expressing African green monkey COS cells to CCR5 receptor expressing human TZM-bl cells at 0.001 to 10 uM after overnight incubation by Bright-Glo luciferase assay; format: cell-based; conditions: Human immunodeficiency virus type 1 (isolate YU2)
COS [12] = test: Inhibition of HIV1 8X gp120-induced cell-cell fusion between viral envelope expressing African green monkey COS cells and human TZM-bl cells at 0.001 to 10 uM after overnight incubation by Bright-Glo luciferase assay; format: cell-based; conditions: Human immunodeficiency virus 1
[13] = system: Human immunodeficiency virus 1; test: Antiviral activity against pseudotype HIV1 CE1176 harboring HIV1 subtype C Env assessed as inhibition of viral infection in human TZM-bl cells measured 2 days post infection by luciferase reporter gene assay; format: functional, organism-based; conditions: Human immunodeficiency virus 1, CE1176, TZM-bl, 48 h
[14] = system: Human immunodeficiency virus 1; test: Antiviral activity against pseudotype HIV1 CNE55 harboring HIV1 subtype CRF01_AE Env assessed as inhibition of viral infection in human TZM-bl cells measured 2 days post infection by luciferase reporter gene assay; format: functional, organism-based; conditions: Human immunodeficiency virus 1, CNE55, TZM-bl, 48 h
[15] = system: Human immunodeficiency virus 1; test: Antiviral activity against pseudotype HIV1 CE0217 harboring HIV1 subtype C Env assessed as inhibition of viral infection in human TZM-bl cells measured 2 days post infection by luciferase reporter gene assay; format: functional, organism-based; conditions: Human immunodeficiency virus 1, CE0217, TZM-bl, 48 h
[16] = system: Human immunodeficiency virus 1; test: Antiviral activity against pseudotype HIV1 X1632 harboring HIV1 subtype G Env assessed as inhibition of viral infection in human TZM-bl cells measured 2 days post infection by luciferase reporter gene assay; format: functional, organism-based; conditions: Human immunodeficiency virus 1, X1632, TZM-bl, 48 h
[17] = system: Human immunodeficiency virus 1; test: Antiviral activity against pseudotype HIV1 BJOX2000 harboring HIV1 subtype CRF07_BC Env assessed as inhibition of viral infection in human TZM-bl cells measured 2 days post infection by luciferase reporter gene assay; format: functional, organism-based; conditions: Human immunodeficiency virus 1, BJOX2000, TZM-bl, 48 h
[18] = system: Human immunodeficiency virus 1; test: Antiviral activity against pseudotype HIV1 25710 harboring HIV1 subtype C Env assessed as inhibition of viral infection in human TZM-bl cells measured 2 days post infection by luciferase reporter gene assay; format: functional, organism-based; conditions: Human immunodeficiency virus 1, 25710, TZM-bl, 48 h
[19] = system: Human immunodeficiency virus 1; test: Antiviral activity against pseudotype HIV1 TRO11 harboring HIV1 subtype B Env assessed as inhibition of viral infection in human TZM-bl cells measured 2 days post infection by luciferase reporter gene assay; format: functional, organism-based; conditions: Human immunodeficiency virus 1, TRO11, TZM-bl, 48 h
[20] = system: Human immunodeficiency virus 1; test: Antiviral activity against pseudotype HIV1 CH119 harboring HIV1 subtype CRF07_BC Env assessed as inhibition of viral infection in human TZM-bl cells measured 2 days post infection by luciferase reporter gene assay; format: functional, organism-based; conditions: Human immunodeficiency virus 1, CH119, TZM-bl, 48 h
[21] = Cytotoxicity against human TZM-bl cells at 20 uM; format: cell-based
[22] = system: Human immunodeficiency virus 1; test: Effect on binding of HIV1 3B gp120 to CD4-IgG2 at 1 to 10 ug/ml by ELISA

Structure (SMILES)	CC50 at 72 h [1] [µM]	pEC50 [2]	also measured
NCCCCCN1CCCC2=C[C@H]3C[C@H](CN4CCCC[C@H]34)[C@@H]21	> 63.1	5.27	–
O=C(Cc1ccc(OC(F)(F)F)cc1)NCCCN1CCCC2=C[C@H]3C[C@H](CN4CCCC[C@H]34)[C@@H]21	> 40.7	5.11	–
C1=C2CCCN(CCCCNCc3ccccc3)[C@H]2[C@@H]2C[C@H]1[C@H]1CCCCN1C2	28.6	6.02	–
O=C(NCCCCN1CCCC2=C[C@H]3C[C@H](CN4CCCC[C@H]34)[C@@H]21)c1ccc(OC(F)(F)F)cc1	34.6	5.95	–
O=C(Cc1ccc(OC(F)(F)F)cc1)NCCN1CCCC2=C[C@H]3C[C@H](CN4CCCC[C@H]34)[C@@H]21	> 41.9	< 5.00	–
O=C(NCCCCN1CCCC2=C[C@H]3C[C@H](CN4CCCC[C@H]34)[C@@H]21)c1ccc(C(F)(F)F)cc1	> 42.1	6.16	–
O=C(NCCN1CCCC2=C[C@H]3C[C@H](CN4CCCC[C@H]34)[C@@H]21)c1ccc(OC(F)(F)F)cc1	> 43.2	< 5.00	–
O=C(NCCCCN1CCCC2=C[C@H]3C[C@H](CN4CCCC[C@H]34)[C@@H]21)c1ccc(O)cc1	> 47.3	5.34	–
O=C(Cc1ccc(OC(F)(F)F)cc1)NCCCCCN1CCCC2=C[C@H]3C[C@H](CN4CCCC[C@H]34)[C@@H]21	17.5	5.38	–
O=C(NCCCN1CCCC2=C[C@H]3C[C@H](CN4CCCC[C@H]34)[C@@H]21)c1ccc(OC(F)(F)F)cc1	> 41.9	< 5.00	–
O=C(NCCCCCN1CCCC2=C[C@H]3C[C@H](CN4CCCC[C@H]34)[C@@H]21)c1ccc(OC(F)(F)F)cc1F	> 38.2	5.21	–
COc1ccc(C(=O)NCCCCN2CCCC3=C[C@H]4C[C@H](CN5CCCC[C@H]45)[C@@H]32)cc1	> 45.8	5.09	–
CN1CCCC2=C[C@H]3C[C@H](CN4CCCC[C@H]34)[C@@H]21	> 81.3	< 5.00	–
C=C(C)[C@@H]1CC[C@]2(C(=O)NCCCCCCCNC(C)=O)CC[C@]3(C)[C@H](CC[C@@H]4[C@@]5(C)CC[C@H](O)C(C)(C)[C@@H]5CC[C@]43C)[C@@H]12	> 32.8	7.60	inhibition (COS [3]): Active; inhibition (COS [4]): Active
COc1ccnc2[nH]cc(C(=O)C(=O)N3CCN(C(=O)c4ccccc4)C[C@H]3C)c12	–	–	pEC50 [5]: 7.00; inhibition (COS [6]): inactive; inhibition (COS [7]): inactive
O=C(/C=C/c1ccc2c(c1)OCO2)NCCCCN1CCCC2=C[C@H]3C[C@H](CN4CCCC[C@H]34)[C@@H]21	> 41.9	5.50	–
O=C(NCCCCN1CCCC2=C[C@H]3C[C@H](CN4CCCC[C@H]34)[C@@H]21)c1ccc(OC(F)(F)F)cc1F	> 39.3	5.50	–
C1=C2CCCN(CCCCCNCc3ccccc3)[C@H]2[C@@H]2C[C@H]1[C@H]1CCCCN1C2	25.1	6.08	–
O=C(NCCCCN1CCCC2=C[C@H]3C[C@H](CN4CCCC[C@H]34)[C@@H]21)c1ccccc1	> 49.1	< 5.00	–

Structure (SMILES)	CC50 at 72 h [1] [µM]	pEC50 [2]	also measured
O=C(NCCCCN1CCCC2=C[C@H]3C[C@H](CN4CCCC[C@H]34)[C@@H]21)c1ccc(F)cc1	> 47.1	< 5.00	–
O=C(NCCCCCCN1CCCC2=C[C@H]3C[C@H](CN4CCCC[C@H]34)[C@@H]21)c1ccc(OC(F)(F)F)cc1	18.5	5.26	–
C1=C2CCCN[C@H]2[C@@H]2C[C@H]1[C@H]1CCCCN1C2	> 86.2	5.76	inhibition [8]: Active; inhibition [9]: inactive; pEC50 [10]: 5.92; pEC50 [5]: 5.80; inhibition (COS [11]): Active; inhibition (COS [12]): Active
NCCCCN1CCCC2=C[C@H]3C[C@H](CN4CCCC[C@H]34)[C@@H]21	> 69.2	5.10	–
O=C(/C=C/c1ccc(OC(F)(F)F)cc1)NCCCCN1CCCC2=C[C@H]3C[C@H](CN4CCCC[C@H]34)[C@@H]21	9.02	5.69	–
O=C(Cc1ccc(OC(F)(F)F)cc1)NCCCCN1CCCC2=C[C@H]3C[C@H](CN4CCCC[C@H]34)[C@@H]21	23	6.12	pEC50 [13]: 5.66; pEC50 [14]: 5.37; pEC50 [15]: 5.85; pEC50 [16]: 5.60; pEC50 [17]: 5.55; pEC50 [18]: 5.68; pEC50 [19]: 5.80; pEC50 [20]: 6.05; Activity [21]: Non-toxic; inhibition (COS [3]): Active; Activity [22]: inactive
NCCCN1CCCC2=C[C@H]3C[C@H](CN4CCCC[C@H]34)[C@@H]21	> 69.4	< 5.00	–
O=C(/C=C/c1ccc2c(c1)OCO2)NCCCN1CCCC2=C[C@H]3C[C@H](CN4CCCC[C@H]34)[C@@H]21	> 43.2	5.10	–
CN1CCCC2C[C@H]3C[C@H](CN4CCCC[C@H]34)[C@@H]21 (stereo partly specified)	> 80.6	< 5.00	–
Cc1ccc(C(=O)NCCCCN2CCCC3=C[C@H]4C[C@H](CN5CCCC[C@H]45)[C@@H]32)cc1	> 47.5	5.30	–
O=C(NCCCCN1CCCC2=C[C@H]3C[C@H](CN4CCCC[C@H]34)[C@@H]21)c1ccccc1OC(F)(F)F	> 40.7	< 5.00	–
NCCCCCCN1CCCC2=C[C@H]3C[C@H](CN4CCCC[C@H]34)[C@@H]21	> 60.4	< 5.00	–
O=C(NCCCCCN1CCCC2=C[C@H]3C[C@H](CN4CCCC[C@H]34)[C@@H]21)c1ccc(OC(F)(F)F)cc1	12.9	6.01	–
O=C(/C=C/c1ccc(OC(F)(F)F)cc1)NCCCCCN1CCCC2=C[C@H]3C[C@H](CN4CCCC[C@H]34)[C@@H]21	6.36	5.62	–
O=C(NCCCCN1CCCC2=C[C@H]3C[C@H](CN4CCCC[C@H]34)[C@@H]21)c1cccc(OC(F)(F)F)c1	> 40.7	5.41	–
FC(F)(F)Oc1ccc(CNCCCCN2CCCC3=C[C@H]4C[C@H](CN5CCCC[C@H]45)[C@@H]32)cc1	6.2	5.38	–
NCCN1CCCC2=C[C@H]3C[C@H](CN4CCCC[C@H]34)[C@@H]21	> 73	< 5.00	–
C1CN[C@@H]2C(C1)C[C@H]1C[C@@H]2CN2CCCC[C@H]12 (stereo partly specified)	> 85.5	< 5.00	–
O=C(/C=C/c1ccc2c(c1)OCO2)NCCN1CCCC2=C[C@H]3C[C@H](CN4CCCC[C@H]34)[C@@H]21	> 44.5	< 5.00	–
